The METLIN SMRT retention time set (Domingo-Almenara et al. 2019)

Assay: gradient 5% acetonitrile 3 min, to 50% in 2 min, to 85% in 15 min, held 3 min, 100 µL/min
Settings: column: Zorbax Extend-C18 2.1 x 50 mm; eluents: water / acetonitrile, 0.1% formic acid
Outline: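 The mobile phases were water and acetonitrile, each with 0.1% formic acid, pumped at 100 μL/min through a Zorbax Extend-C18 column (2.1 × 50 mm, 1.8 μm). Pure standards were injected as mixtures of ~100 molecules and detected by a quadrupole time-of-flight mass spectrometer in positive and negative ionization mode. Retention time came from computationally picked adduct peaks, each inspected by hand.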

| RP-LC retention time | SMILES |
| --- | --- |
| 847 s | Cc1noc(C)c1S(=O)(=O)NCC(c1cccs1)S(=O)(=O)c1ccc(F)cc1 (centres undefined) |
| 530 s | COc1ccc(S(=O)Cc2ccc(C(=O)NCCN(C)C)o2)cc1 (centres undefined) |
| 825 s | CCOC(=O)C1CCCN(C(=O)C2CCN(S(=O)(=O)c3ccc4c(c3)sc(=O)n4C)CC2)C1 (centres undefined) |
| 788 s | CCn1cc(C(=O)N2CCCc3ccccc32)c2nn(-c3ccccc3)c(=O)c-2c1 |
| 996 s | CC(C)c1ccc(C(=O)NC(Cc2ccccc2)c2nnc(N3CCSCC3)o2)cc1 (centres undefined) |
| 958 s | O=S(=O)(c1cccn2c(SCc3ccccc3)nnc12)N1CCN(c2ccc(F)cc2)CC1 |
| 664 s | O=C(NCCc1noc(C2CC2)n1)c1ccco1 |
| 574 s | CCN(CCCNC(=O)C1CCN(c2nccc3c(C)nn(C)c23)CC1)c1ccccc1 |
| 682 s | O=S(=O)(c1cccc2nsnc12)N1CCCC1c1noc(CO)n1 (centres undefined) |
| 1100 s | Cc1cc(C)cc(NS(=O)(=O)c2c(C)sc(C)c2-c2cc(C)[nH]n2)c1 |
| 727 s | CC(NC(=O)C1CCN(Cc2cn(C)c3ccc(Cl)cc23)CC1)c1ccccc1 (centres undefined) |
| 1020 s | COC(=O)c1ccc(NC(=O)Cn2c(C)nc3c(sc4nc(-c5ccccc5)ccc43)c2=O)cc1 |
| 775 s | CCN(CC)C(=O)c1cc2c(s1)CCC(C(=O)Nc1ccc3c(c1)OCCO3)C2 (centres undefined) |
| 759 s | CCOc1ccc(N2CC(c3nc(-c4cccnc4)no3)CC2=O)cc1 (centres undefined) |
| 551 s | O=c1c(NCCc2ccccn2)nc2ccncc2n1Cc1ccccc1 |
| 576 s | O=S(=O)(NCCCN1CCOC(c2ccccc2)C1)c1ccccc1Cl (centres undefined) |
| 1120 s | Cc1ccc(-c2noc(Cc3nnc(-c4ccc(F)cc4)o3)n2)cc1C |
| 573 s | COCCOC1CN(C2CCN(Cc3cccc(C)c3)CC2)C12CCCCC2 (centres undefined) |
| 656 s | Fc1ccc(-c2noc(CCc3nnc4ccc(N5CCN(Cc6ccccc6)CC5)nn34)n2)cc1 |
| 721 s | Cc1cc(C)c(C#N)c(SCC(=O)N2CCOCC2)n1 |
| 1360 s | CC1CCN(c2cc(-c3nc(-c4ccccc4)no3)c3ccccc3n2)CC1 |
| 743 s | O=C(Nc1nccs1)C1CCN(C(=O)c2cnn(-c3ccccc3)n2)CC1 |
| 672 s | O=C1C(N2CCN(S(=O)(=O)c3ccccc3Cl)CC2)CCN1CCc1ccccc1 (centres undefined) |
| 600 s | CC(=O)Nc1ccc(S(=O)(=O)NCCc2csc(C)n2)cc1 |
| 703 s | CCCC(N[C@@H](C)C(=O)N1[C@H](C(=O)O)C[C@@H]2CCCC[C@@H]21)C(=O)OCC (some centres undefined) |

| RP-LC retention time | SMILES |
| --- | --- |
| 860 s | Cc1ccc(NC(=O)C(C)C2CCN(C(=O)Nc3ccccc3)CC2)cc1 (centres undefined) |
| 922 s | COc1ccc(C)cc1NS(=O)(=O)c1ccc(-c2nnc(C3CCC3)o2)o1 |
| 774 s | Cc1[nH]c(C(=O)N2CCC(CC(=O)NCc3ccc4c(c3)OCO4)CC2)c(C)c1C |
| 843 s | Cn1cccc1CN(C(=O)C1(c2ccccc2)CCOCC1)C1CC1 |
| 712 s | O=C(NC1CCN(c2cc(-c3ccc(Cl)cc3)[nH]n2)C1)c1ccccc1 (centres undefined) |
| 1120 s | COCCSc1nc(-c2cccs2)cc(C(F)(F)F)c1C#N |
| 1060 s | O=C(c1cn(-c2cc(N3CCCCC3)ncn2)cn1)N1CC=C(c2ccccc2)CC1 |
| 882 s | NS(=O)(=O)c1ccc(NS(=O)(=O)c2cc(-c3noc(C4CCCC4)n3)cs2)cc1 |
| 752 s | CCNC(=O)NCc1nc(-c2ccc(Cl)cc2)no1 |
| 693 s | NC(=O)COC1CCC12CCN(C(=O)C1CCCC1)CC2 (centres undefined) |
| 614 s | CCN1CCN(CCNC(=O)c2cc3n(n2)CCCN(Cc2ccc(C)cc2)C3=O)CC1 |
| 611 s | N[C@@H](Cc1ccc2oc3cc(=O)c4ccccc4c-3nc2c1)C(=O)O |
| 919 s | O=c1n(Cc2cccc(Cl)c2)nc2ccc(S(=O)(=O)N3CCCC3)cn12 |
| 629 s | O=C(N1CCN(S(=O)(=O)c2cccnc2)CC1)N1C[C@H]2C[C@H](C1)[C@H]1CCCC(=O)N1C2 |
| 608 s | Cc1ccccc1CC(=O)N1CCN(c2cc(C)n3cnnc3n2)CC1 |
| 644 s | CNC(=O)C1=CCN(C(=O)c2ccc(F)cc2F)CC1 |
| 571 s | CCCN1CCN(CCNC(=O)CCc2cc3ccc(C)cc3[nH]c2=O)CC1 |
| 1060 s | Cc1ccc(C(=O)N2CCN(S(=O)(=O)c3cc(-c4noc(C5CCC5)n4)cs3)CC2)s1 |
| 704 s | O=C(c1cccc2c1CCN2C(=O)c1ccc(F)cc1)N1CCOCC1 |
| 683 s | CCCN(C)c1nccn2c(=O)n(CC(=O)Nc3ccc(C)cc3)nc12 |
| 688 s | COCCc1noc(-c2cnc3nc(C)ccc3c2Nc2ccc(F)cc2)n1 |
| 669 s | CCOc1cc(C2NC(=O)c3[nH]nc(-c4cccc(OC)c4)c32)ccc1O (centres undefined) |
| 797 s | O=C(Nc1cnn(-c2ncncc2N2CCCC2)c1)c1cccc(C(F)(F)F)c1 |
| 606 s | CCNC(=O)N1CCc2nc(OCC)ccc2C1 |

Further lines, the compound ahead of its results:

| SMILES | RP-LC retention time |
| --- | --- |
| Cc1ccc2c(c1)N(S(C)(=O)=O)CCC(C(=O)Nc1ccc(F)cc1F)O2 (centres undefined) | 958 s |
| COCC1(O)CCOC2(CCN(Cc3ccc(C)cc3C)CC2)C1 (centres undefined) | 559 s |
| O=C(NCC(O)c1cccc2ccccc12)c1ccccc1C(F)(F)F (centres undefined) | 814 s |
| COc1ccc(CNC(=O)C(=O)NCC(c2ccc3c(c2)OCO3)N2CCOCC2)cc1 (centres undefined) | 643 s |
| CS(=O)(=O)N1CCCC(C(=O)Nc2ccc(Cl)cc2C(=O)c2ccccc2)C1 (centres undefined) | 869 s |
| COc1ccc(OCc2nc(-c3ccc(S(=O)(=O)N4CCOCC4)cc3)no2)cc1 | 1000 s |
| Cc1ccc(C)c(N2CCN(c3ccnc(SCC(=O)Nc4cc(F)ccc4F)n3)CC2)c1 | 1120 s |
| C[C@]12CCC(=O)C[C@@H]1CC[C@@H]1[C@@H]2CC[C@@]2(C)[C@H]1CC[C@]2(C)O | 1050 s |
| O=C(NCCc1nc2cccnc2n1-c1ccccc1)c1ccccc1 | 708 s |
| O=C(Nc1ccc(F)cc1F)N1CCC(N2CCN(Cc3ccccc3)C(=O)C2=O)CC1 | 681 s |
| CCN1CCN(CCCNC(=O)C2CCCN(C(=O)c3[nH]c(C)c(C(=O)OC(C)C)c3C)C2)CC1 (centres undefined) | 579 s |
| CCc1nc2cc(N3CCC(C(=O)Nc4ccc(OC)cc4OC)CC3)cnc2nc1CC | 877 s |
| CN(CC1(C)CCOCC1)C(=O)c1ccc2cc[nH]c2c1 | 696 s |
| Clc1ccc(Nc2nc(NCCCn3ccnc3)nc3nc[nH]c23)cc1 | 536 s |
| CC(C)CN1C(=O)c2cccn2CC1C(=O)NCCCN1CCOCC1 (centres undefined) | 577 s |
| Cc1ccc(-c2csc(NC(=O)COc3ccc(Cl)cc3Cl)n2)cc1 | 1180 s |
| CCCS(=O)(=O)N1CC(=O)N(c2ccc(C)c(Cl)c2)C(C)(C(=O)NC2CCCCC2)C1 (centres undefined) | 979 s |
| COc1ccc(C)cc1NC(=O)c1cn2c(n1)CSCC2 | 841 s |
| O=C(Nc1nc2c(s1)CN(C(=O)Nc1ccc(Cl)c(Cl)c1)CC2)c1cnccn1 | 811 s |
| CCOc1ccc(-c2cc3c(=O)n(Cc4nc(-c5ccc(F)c(Cl)c5)no4)ncn3n2)cc1 | 982 s |

| SMILES | RP-LC retention time |
| --- | --- |
| Cc1ccc(C(=O)N2CCN(S(=O)(=O)c3cc4c5c(c3)CCC(=O)N5CCC4)CC2)cc1C | 850 s |
| O=C(c1nc(-c2cccs2)cs1)N1CCCC1 | 935 s |
| COc1cc(-c2nc3ccc(C)cn3c2Nc2ccc3c(c2)OCCO3)ccc1O | 636 s |
| COc1ccc(C(=O)Nc2nccnc2C(=O)NC2CCCCC2)cc1 | 1040 s |
| COCCCNC(=O)CCC[C@@H]1[C@H]2CCCN3CCC[C@@H](CN1C)[C@@H]23 | 709 s |
| Cc1nc2c(sc3nc(-c4ccccc4)ccc32)c(=O)n1CC(=O)NCc1cccs1 | 750 s |
| Cc1ccc(NC(=O)N2CCc3nc(-c4ccccc4)ncc3C2)c(C)c1 | 952 s |
| O=C(NCCCN1CCCC1=O)c1nc(Nc2ccc(F)cc2)c2ccccc2n1 | 636 s |
| CCCOc1nc2ccccc2nc1N1CCCC(C(=O)NC2CC2)C1 (centres undefined) | 1010 s |
| COc1cc(CN2CCC3(CCC3O)CC2)ccc1OC(C)C (centres undefined) | 614 s |
| O=C(Nc1ccccc1)c1cn2c(n1)CCCC2 | 577 s |
| COc1cccc(C2Cn3nnc(-c4nc(-c5ccc(Br)cc5)no4)c3CO2)c1 (centres undefined) | 1240 s |
| CC(C)NC(=O)c1ccc(OCC2CCCN2C(=O)C(C)C)cc1 (centres undefined) | 757 s |
| CCC1(O)CCC12CCN(C(=O)C1CCCC1)CC2 (centres undefined) | 773 s |
| Cc1ccccc1CNC(=O)C1(c2ccc(NS(C)(=O)=O)cc2)CCCCC1 | 917 s |
| COCCCN(CC(=O)N1CCc2sccc2C1COc1ccccc1F)C(C)=O (centres undefined) | 764 s |
| O=C(Nc1ccc(C2(C(=O)N3CCN(c4ccccn4)CC3)CCC2)cc1)C1CC1 | 614 s |
| O=C(c1cccs1)N1CCN(c2ccc(=O)n(-c3ccccc3)n2)CC1 | 733 s |
| CC(NC(=O)c1ccc(CN2CCN(Cc3ccccc3)C(=O)C2=O)cc1)c1ccccc1 (centres undefined) | 812 s |
| Cc1ccc2c(c1)C(=O)NC1(CCN(C(=O)NCCc3ccccc3)CC1)N2C | 755 s |
